Source: US20080108645A1, “Dihydrotetrabenazines And Pharmaceutical Compositions Containing Them” (CAMBRIDGE LABORATORIES, (IRELAND), LTD., priority 2004, published 2008)

Columns and labels:
in vitro = conditions: human, Caco-2, pH 7.4
From the text: The assay relies on the ability of Caco-2 cells to differentiate into enterocytes when cultured on a microporous filter for a period of approximately 21 days. During the culture period, the Caco-2 cells undergo spontaneous morphological and biochemical changes, which produce a polarized monolayer with a well-defined brush border on the apical surface, as well as tight cellular junctions. Therefore, these cells may be used as an in vitro model for the analysis of drug permeability.
Absorption across the Caco-2 monolayer can be measured in two directions: apical-to-basolateral or basolateral-to-apical, by adding the compound to the apical or the basolateral chamber, respectively. At various time-points, samples are collected from the receiver-chamber for analysis for the rate of absorption as measured by the apparent permeability coefficient (Papp) across the monolayer.
The Papp value reflects a combination of the test article permeability through both transcellular (through cell membranes) and the paracellular (across the tight junctions between the cells) pathways. The relative contribution of these pathways depends upon the pKa, partition coefficient (log D), molecular radius, and charge of the test article at a given pH. Papp values can then be used to rank-order compounds for their permeability through Caco-2 monolayers.
Absorption was determined at pH 7.4 across cell monolayers in the apical-to-basolateral direction. Caco-2 cells used to estimate Papp values were grown for 26 days on Transwell inserts in 12-well plates. Monolayer integrity was verified before and after the absorption assay by the methods of transepithelial electrical resistance (Ohm-cm^2) and Lucifer Yellow.
On the day of the assay, the reference standards were diluted in Hank's balanced salt solution (HBSS), pH 7.4 to a final concentration of 50 μM. […] Dihydrotetrabenazine isomer samples were prepared at a concentration of 50 mM in DMSO. Each stock solution was further diluted in HBSS buffer (pH 7.4) to a final working concentration of 50 μM
The Caco-2 cell suspensions were prepared as follows. […] Once the cell density and viability were determined, Caco-2 cells were diluted in culture medium to a final working concentration of 2.0×10^5 cells/ml. The Caco-2 culture medium contained Dulbecco's Modified Eagle Medium, 10% fetal bovine serum, 100 μM non-essential amino acids, 100 U/ml penicillin and 100 μg/ml streptomycin.
Costar polycarbonate membranes (0.4 μm pore size) were pre-equilibrated with Caco-2 culture medium for 1 hour in a 37° C. water-jacketed incubator with 5% CO2. The content of the apical chamber was removed and replaced with 500 μl of Caco-2 cell suspension (200 000 cells/ml). Cells were further maintained in culture for 26 days in a 37° C. water-jacketed incubator with 5% CO2.
Prior to the assay, all monolayers were washed twice with HBSS and their transepithelial electrical resistance (TEER) was measured with a Millicell-ERS meter. TEER values obtained in the absence of cells were subtracted as background signal. Only monolayer with TEER values over 150 Ohm-cm^2 were used for the absorption assay experiment.
All absorption experiments were conducted in triplicate at pH 7.4. The rate of absorption of each reference standard and dihydrotetrabenazine test article was assessed in the apical-to-basolateral direction. Aliquots (100 μl) of each working solution (reference standards and test articles at 50 μM) were set aside at the beginning of the assay for the determination of the initial concentration (Co).
Absorption experiments were initiated by replacing the content of the donor chamber with 500 μl of Hanks Balanced Salt Solution containing test articles or reference compounds. Cells were returned to the CO2 incubator for the absorption assay. Samples of 100 μl were collected from the receiver and donor chambers after 1 hour and were used to determine the percentage of recovery.

VMAT1 = molecular target: T1, VMAT1 (Rattus norvegicus, UniProt Q01818); experiment: VMAT1 functional assay: [3H] dopamine uptake, rat adrenal chromaffin cell vesicles in presence of 10 μM tetrabenazine; format: biochemical; conditions: for IC50: in the presence of 10 μM Tetrabenazine, read-out: IC50, inhibition of [3H] dopamine uptake
T1 construct: The vesicular fraction was isolated in an identical fashion to that described for the brain preparation; from tissue; host or cells: SD rat adrenal medulla chromaffin cells, vesicular fraction
T1 sequence (Q01818 1-521): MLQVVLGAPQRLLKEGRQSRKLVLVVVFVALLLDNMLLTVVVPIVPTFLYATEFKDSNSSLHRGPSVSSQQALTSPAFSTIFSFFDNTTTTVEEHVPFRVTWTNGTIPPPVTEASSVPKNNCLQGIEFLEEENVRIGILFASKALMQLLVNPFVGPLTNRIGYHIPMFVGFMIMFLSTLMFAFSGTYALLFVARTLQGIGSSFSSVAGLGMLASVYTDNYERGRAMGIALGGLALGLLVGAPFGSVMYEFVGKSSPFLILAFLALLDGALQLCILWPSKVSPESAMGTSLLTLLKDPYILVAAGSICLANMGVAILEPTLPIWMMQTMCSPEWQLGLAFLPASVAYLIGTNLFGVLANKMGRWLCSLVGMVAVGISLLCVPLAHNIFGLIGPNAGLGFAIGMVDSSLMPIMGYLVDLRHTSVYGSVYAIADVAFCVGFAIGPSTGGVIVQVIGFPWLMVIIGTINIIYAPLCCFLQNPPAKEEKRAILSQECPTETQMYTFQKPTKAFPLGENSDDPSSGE
Protocol: Thus, adrenal glands were dissected in ice cold PBS, the capsule and cortex of the glands removed and the remaining medullae were minced. After multiple washes with PBS, the tissue was incubated with Ca2+-free collagenase IA solution (250 U/ml) for 30 minutes at 30° C. with gentle stirring. The digested tissue was rinsed three times and the dissociated cells were centrifuged at 3000 rpm to form a pellet, which was resuspended in PBS. The vesicular fraction was isolated in an identical fashion to that described for the brain preparation.
100 μl (approx. 2.5 μg protein) of synaptic vesicles were preincubated with increasing concentrations of test compound (prepared as previously described for binding assay) for 30 minutes (concentration range 10^−9 M-10^−4 M). The assay was performed for 3 minutes at 30° C. in the assay buffer (25 mM HEPES, 100 mM potassium tartrate, 1.7 mM ascorbic acid, 0.05 mM EGTA, 0.1 mM EDTA, 2 mM ATP-Mg^2+, pH 7.5), in the presence of [^3H] dopamine (30 nM final concentration). [^3H] dopamine uptake was measured in the presence of 10 μM tetrabenazine (selectively blocks VMAT2 at this concentration). Non-specific uptake was determined by measuring vesicular [^3H] dopamine uptake at 4° C. The reaction was then terminated by addition of ice-cold buffer assay buffer pH 7.5, containing 2 mM MgSO4 instead of 2 mM ATP-Mg^2+, and rapid filtration achieved through Whatman filters soaked in 0.5% polyethyleneimine. The filters were washed three times with cold buffer using a Brandel Harvester and the radioactivity trapped on the filters was counted using a liquid scintillation counter.

Adrenergic α2B Receptor = molecular target: T2, Adrenergic α2B Receptor (Homo sapiens, UniProt P18089); experiment: Adrenergic α2B receptor radioligand binding; conditions: 10 μM; 2.5 nM [3H] Rauwolscine
T2 construct: expressed in transfected cells; host or cells: CHO-K1 cells
T2 sequence (P18089 1-450): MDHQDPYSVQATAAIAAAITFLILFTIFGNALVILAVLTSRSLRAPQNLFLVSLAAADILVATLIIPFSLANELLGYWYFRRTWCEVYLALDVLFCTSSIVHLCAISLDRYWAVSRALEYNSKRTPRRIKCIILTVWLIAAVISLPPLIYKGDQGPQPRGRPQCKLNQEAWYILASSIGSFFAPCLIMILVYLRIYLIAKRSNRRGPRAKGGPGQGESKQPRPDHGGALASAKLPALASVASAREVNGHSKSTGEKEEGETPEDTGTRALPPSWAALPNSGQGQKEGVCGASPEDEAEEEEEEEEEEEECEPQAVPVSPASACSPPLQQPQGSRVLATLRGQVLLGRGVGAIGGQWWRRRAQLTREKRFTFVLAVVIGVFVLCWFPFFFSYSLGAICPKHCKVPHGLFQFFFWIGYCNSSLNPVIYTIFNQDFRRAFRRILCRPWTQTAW
Protocol: (§1) (a) Adrenergic α2A Receptor: • Reference: S. Uhlen et al. J. Pharmacol. Exp. Ther., 271:1558-1565 (1994) • Source: Human recombinant insect Sf9 cells • Ligand: 1 nM [^3H] […] J. Pharmacol., 99:803-809, (1990) • Source: Wistar rat cerebral cortex • Ligand: 2 nM [3H]

Sigma σ2 Receptor = molecular target: T3, Sigma σ2 Receptor (Rattus norvegicus, UniProt Q5U3Y7); experiment: Sigma σ2 receptor radioligand binding; parameters: species or system Wistar rat; conditions: 3 nM [3H] Ifenprodil
T3 construct: Source: Wistar rat brain; from tissue; host or cells: Wistar rat brain
T3 sequence (Q5U3Y7 1-176): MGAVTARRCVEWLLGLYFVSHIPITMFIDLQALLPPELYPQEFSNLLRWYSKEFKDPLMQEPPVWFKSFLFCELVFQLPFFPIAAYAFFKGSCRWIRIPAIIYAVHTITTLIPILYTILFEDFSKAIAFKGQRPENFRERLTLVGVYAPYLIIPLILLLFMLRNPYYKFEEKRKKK
Protocol: as §1

Dopamine D2L Receptor = molecular target: T4, Dopamine D2L Receptor (Homo sapiens, UniProt P14416); experiment: Dopamine D2L receptor radioligand binding; conditions: 10 μM; 0.16 nM [3H] Spiperone
T4 construct: expressed in transfected cells; host or cells: CHO cells
T4 sequence (P14416 whole entry): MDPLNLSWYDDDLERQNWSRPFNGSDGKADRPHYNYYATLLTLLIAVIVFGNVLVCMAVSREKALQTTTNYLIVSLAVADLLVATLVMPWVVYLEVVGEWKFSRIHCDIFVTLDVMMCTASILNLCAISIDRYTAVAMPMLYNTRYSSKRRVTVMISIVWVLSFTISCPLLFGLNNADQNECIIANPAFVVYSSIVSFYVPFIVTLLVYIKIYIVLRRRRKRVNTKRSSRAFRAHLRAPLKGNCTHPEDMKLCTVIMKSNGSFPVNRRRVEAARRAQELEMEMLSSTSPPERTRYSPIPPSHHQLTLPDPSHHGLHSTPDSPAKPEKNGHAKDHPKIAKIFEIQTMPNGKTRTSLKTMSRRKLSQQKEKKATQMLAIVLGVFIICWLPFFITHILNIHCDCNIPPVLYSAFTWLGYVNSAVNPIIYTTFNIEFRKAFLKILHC
Protocol: as §1

COc1cc2c(cc1OC)[C@H]1C[C@H](O)[C@@H](CC(C)C)CN1CC2 (single isomer, unassigned) [Isomer B, 3,11b-cis-dihydrotetrabenazine]
recovery at 1 h, 50 μM (in vitro): 90.1 ± 6.5% | affinity for VMAT1 (in words) (VMAT1): low affinity for VMAT-1 | IC50 (VMAT1): > 10 µM | Percentage Inhibition of Specific Binding, α2B Receptor (Adrenergic α2B Receptor): 14% | Percentage Inhibition of Specific Binding, σ2 Receptor (Sigma σ2 Receptor; 10 μM): 64% | Percentage Inhibition of Specific Binding, D2L Receptor (Dopamine D2L Receptor): 16%

COc1cc2c(cc1OC)[C@H]1C[C@@H](O)[C@@H](CC(C)C)CN1CC2 (single isomer, unassigned) [Isomer C, 3,11b-cis-dihydrotetrabenazine]
Papp A→B at 1 h, 50 μM (in vitro): 211 nm/s | recovery at 1 h, 50 μM (in vitro): 102 ± 12.4% | affinity for VMAT1 (in words) (VMAT1): low affinity for VMAT-1 | IC50 (VMAT1): > 10 µM | Percentage Inhibition of Specific Binding, α2B Receptor (Adrenergic α2B Receptor): −7% | inhibition at 10 µM (Sigma σ2 Receptor; read-out: Percentage Inhibition of Specific Binding, σ2 Receptor): 61% | Percentage Inhibition of Specific Binding, D2L Receptor (Dopamine D2L Receptor): −14%
